# In PubChem BioAssay (NCI):
#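 At the GI50, growth is halved. Definition used: TGI = concentration required for complete inhibition of growth.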
# Legend:
# Test in all cases: NCI-60 cell line screen, 384-well format
# 786-0 renal = system: 786-0 renal
# A498 renal = system: A498 renal
# A549 NSCLC = system: A549 NSCLC
# ACHN renal = system: ACHN renal
# BT-549 breast = system: BT-549 breast
# CAKI-1 renal = system: CAKI-1 renal
# CCRF-CEM leukemia = system: CCRF-CEM leukemia
# COLO 205 colon = system: COLO 205 colon
# DU-145 prostate = system: DU-145 prostate
# EKVX NSCLC = system: EKVX NSCLC
# HCC-2998 colon = system: HCC-2998 colon
# HCT-15 colon = system: HCT-15 colon
# HL-60(TB) leukemia = system: HL-60(TB) leukemia
# HOP-62 NSCLC = system: HOP-62 NSCLC
# HT29 colon = system: HT29 colon
# IGROV1 ovarian = system: IGROV1 ovarian
# K-562 leukemia = system: K-562 leukemia
# KM12 colon = system: KM12 colon
# LOX IMVI melanoma = system: LOX IMVI melanoma
# M14 melanoma = system: M14 melanoma
# MALME-3M melanoma = system: MALME-3M melanoma
# MCF7 breast = system: MCF7 breast
# MDA-MB-231 breast = system: MDA-MB-231 breast
# MDA-MB-435 melanoma = system: MDA-MB-435 melanoma
# MDA-MB-468 breast = system: MDA-MB-468 breast
# MOLT-4 leukemia = system: MOLT-4 leukemia
# NCI-H226 lung = system: NCI-H226 lung
# NCI-H23 lung = system: NCI-H23 lung
# NCI-H322M lung = system: NCI-H322M lung
# NCI-H460 NSCLC = system: NCI-H460 NSCLC
# NCI-H522 lung = system: NCI-H522 lung
# NCI/ADR-RES ovarian = system: NCI/ADR-RES ovarian
# OVCAR-3 ovarian = system: OVCAR-3 ovarian
# OVCAR-4 ovarian = system: OVCAR-4 ovarian
# OVCAR-5 ovarian = system: OVCAR-5 ovarian
# OVCAR-8 ovarian = system: OVCAR-8 ovarian
# PC-3 prostate = system: PC-3 prostate
# RPMI-8226 leukemia = system: RPMI-8226 leukemia
# RXF 393 renal = system: RXF 393 renal
# SF-268 CNS = system: SF-268 CNS
# SF-295 CNS = system: SF-295 CNS
# SF-539 CNS = system: SF-539 CNS
# SK-MEL-28 melanoma = system: SK-MEL-28 melanoma
# SK-MEL-5 melanoma = system: SK-MEL-5 melanoma
# SK-OV-3 ovarian = system: SK-OV-3 ovarian
# SN12C renal = system: SN12C renal
# SNB-19 CNS = system: SNB-19 CNS
# SNB-75 CNS = system: SNB-75 CNS
# SR leukemia = system: SR leukemia
# SW-620 colon = system: SW-620 colon
# T-47D breast = system: T-47D breast
# TK-10 renal = system: TK-10 renal
# UACC-257 melanoma = system: UACC-257 melanoma
# UACC-62 melanoma = system: UACC-62 melanoma
# UO-31 renal = system: UO-31 renal
smiles,measurement,setting,value
Cc1nc2ccc(CN(C)c3ccc(C(=O)N[C@@H](CCC(=O)O)C(=O)O)s3)cc2c(=O)[nH]1,GI50,786-0 renal,< 10 nM
same,TGI,786-0 renal,> 100000 nM
same,GI50,A498 renal,< 10 nM
same,TGI,A498 renal,> 100000 nM
same,GI50,A549 NSCLC,< 10 nM
same,TGI,A549 NSCLC,> 100000 nM
same,GI50,ACHN renal,< 10 nM
same,TGI,ACHN renal,> 100000 nM
same,GI50,BT-549 breast,< 10 nM
same,TGI,BT-549 breast,> 100000 nM
same,GI50,CAKI-1 renal,< 10 nM
same,TGI,CAKI-1 renal,> 100000 nM
same,GI50,CCRF-CEM leukemia,< 10 nM
same,TGI,CCRF-CEM leukemia,< 10 nM
same,GI50,COLO 205 colon,< 10 nM
same,TGI,COLO 205 colon,> 100000 nM
same,GI50,DU-145 prostate,< 10 nM
same,TGI,DU-145 prostate,> 100000 nM
same,GI50,EKVX NSCLC,> 100000 nM
same,TGI,EKVX NSCLC,> 100000 nM
same,GI50,HCC-2998 colon,< 10 nM
same,TGI,HCC-2998 colon,> 100000 nM
same,GI50,HCT-15 colon,< 10 nM
same,TGI,HCT-15 colon,> 100000 nM
same,GI50,HL-60(TB) leukemia,< 10 nM
same,TGI,HL-60(TB) leukemia,< 10 nM
same,GI50,HOP-62 NSCLC,< 10 nM
same,TGI,HOP-62 NSCLC,19.5 nM
same,GI50,HT29 colon,< 10 nM
same,TGI,HT29 colon,> 100000 nM
same,GI50,IGROV1 ovarian,46.2 nM
same,TGI,IGROV1 ovarian,> 100000 nM
same,GI50,K-562 leukemia,< 10 nM
same,TGI,K-562 leukemia,> 100000 nM
same,GI50,KM12 colon,> 100000 nM
same,TGI,KM12 colon,> 100000 nM
same,GI50,LOX IMVI melanoma,< 10 nM
same,TGI,LOX IMVI melanoma,> 100000 nM
same,GI50,M14 melanoma,< 10 nM
same,TGI,M14 melanoma,< 10 nM
same,GI50,MALME-3M melanoma,17.9 nM
same,TGI,MALME-3M melanoma,> 100000 nM
same,GI50,MCF7 breast,< 10 nM
same,TGI,MCF7 breast,> 100000 nM
same,GI50,MDA-MB-231 breast,8370 nM
same,TGI,MDA-MB-231 breast,> 100000 nM
same,GI50,MDA-MB-435 melanoma,< 10 nM
same,TGI,MDA-MB-435 melanoma,> 100000 nM
same,GI50,MDA-MB-468 breast,> 100000 nM
same,TGI,MDA-MB-468 breast,> 100000 nM
same,GI50,MOLT-4 leukemia,< 10 nM
same,TGI,MOLT-4 leukemia,< 10 nM
same,GI50,NCI-H226 lung,55500 nM
same,TGI,NCI-H226 lung,> 100000 nM
same,GI50,NCI-H23 lung,490 nM
same,TGI,NCI-H23 lung,> 100000 nM
same,GI50,NCI-H322M lung,> 100000 nM
same,TGI,NCI-H322M lung,> 100000 nM
same,GI50,NCI-H460 NSCLC,< 10 nM
same,TGI,NCI-H460 NSCLC,> 100000 nM
same,GI50,NCI-H522 lung,< 10 nM
same,TGI,NCI-H522 lung,< 10 nM
same,GI50,NCI/ADR-RES ovarian,< 10 nM
same,TGI,NCI/ADR-RES ovarian,< 10 nM
same,GI50,OVCAR-3 ovarian,< 10 nM
same,TGI,OVCAR-3 ovarian,> 100000 nM
same,GI50,OVCAR-4 ovarian,> 100000 nM
same,TGI,OVCAR-4 ovarian,> 100000 nM
same,GI50,OVCAR-5 ovarian,< 10 nM
same,TGI,OVCAR-5 ovarian,> 100000 nM
same,GI50,OVCAR-8 ovarian,< 10 nM
same,TGI,OVCAR-8 ovarian,> 100000 nM
same,GI50,PC-3 prostate,< 10 nM
same,TGI,PC-3 prostate,> 100000 nM
same,GI50,RPMI-8226 leukemia,< 10 nM
same,TGI,RPMI-8226 leukemia,< 10 nM
same,GI50,RXF 393 renal,11.9 nM
same,TGI,RXF 393 renal,> 100000 nM
same,GI50,SF-268 CNS,< 10 nM
same,TGI,SF-268 CNS,< 10 nM
same,GI50,SF-295 CNS,< 10 nM
same,TGI,SF-295 CNS,< 10 nM
same,GI50,SF-539 CNS,< 10 nM
same,TGI,SF-539 CNS,> 100000 nM
same,GI50,SK-MEL-28 melanoma,< 10 nM
same,TGI,SK-MEL-28 melanoma,> 100000 nM
same,GI50,SK-MEL-5 melanoma,> 100000 nM
same,TGI,SK-MEL-5 melanoma,> 100000 nM
same,GI50,SK-OV-3 ovarian,< 10 nM
same,TGI,SK-OV-3 ovarian,> 100000 nM
same,GI50,SN12C renal,< 10 nM
same,TGI,SN12C renal,< 10 nM
same,GI50,SNB-19 CNS,< 10 nM
same,TGI,SNB-19 CNS,98.7 nM
same,GI50,SNB-75 CNS,< 10 nM
same,TGI,SNB-75 CNS,> 100000 nM
same,GI50,SR leukemia,< 10 nM
same,TGI,SR leukemia,< 10 nM
same,GI50,SW-620 colon,< 10 nM
same,TGI,SW-620 colon,> 100000 nM
same,GI50,T-47D breast,< 10 nM
same,TGI,T-47D breast,> 100000 nM
same,GI50,TK-10 renal,< 10 nM
same,TGI,TK-10 renal,> 100000 nM
same,GI50,UACC-257 melanoma,6070 nM
same,TGI,UACC-257 melanoma,> 100000 nM
same,GI50,UACC-62 melanoma,23.3 nM
same,TGI,UACC-62 melanoma,> 100000 nM
same,GI50,UO-31 renal,< 10 nM
same,TGI,UO-31 renal,> 100000 nM
